Results from ChEMBL document CHEMBL5728673, “Substituted imidazopyridine compounds as inhibitors of indoleamine 2,3-dioxygenase and/or tryptophan-2,3-dioxygenase” (2021).

Assays:
[1] = molecular target: Tryptophan 2,3-dioxygenase (Homo sapiens, UniProt P48775); assay: (§1) Biochemical Coupled Assay: Recombinant human IDO or TDO was incubated in 50 mM KPO4 (pH 7.0), 0.5 mM EGTA, 0.5 mM EDTA, 0.05% Triton™ X100, 20 mM ascorbate, 10 μM methylene blue, 500 U/ml catalase, 50 μg/ml KynB (kynurenine formamidase). TDO assays were carried out in the presence of 330 μM L-tryptophan, while IDO assays had the addition of 45 μM L-tryptophan. After incubation for 17 minutes at room temperature the reactions were stopped by the addition of Erhlich's reagent and incubated at room temperature for 5 minutes before the fluorescence was read.
Chain of Tryptophan 2,3-dioxygenase (P48775 whole entry): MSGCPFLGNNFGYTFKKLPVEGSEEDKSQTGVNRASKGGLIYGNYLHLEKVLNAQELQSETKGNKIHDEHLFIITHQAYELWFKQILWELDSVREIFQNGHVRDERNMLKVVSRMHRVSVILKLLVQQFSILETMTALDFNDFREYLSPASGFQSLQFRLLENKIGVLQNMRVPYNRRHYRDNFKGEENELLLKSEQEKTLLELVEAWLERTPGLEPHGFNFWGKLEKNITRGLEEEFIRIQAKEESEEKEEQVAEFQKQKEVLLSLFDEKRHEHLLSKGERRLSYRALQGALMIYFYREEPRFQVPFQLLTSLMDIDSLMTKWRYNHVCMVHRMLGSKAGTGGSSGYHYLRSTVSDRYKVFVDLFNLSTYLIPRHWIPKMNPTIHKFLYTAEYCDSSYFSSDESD

[2] = molecular target: Indoleamine 2,3-dioxygenase 1 (Homo sapiens, UniProt P14902); assay: as §1
Chain of Indoleamine 2,3-dioxygenase 1 (P14902 whole entry): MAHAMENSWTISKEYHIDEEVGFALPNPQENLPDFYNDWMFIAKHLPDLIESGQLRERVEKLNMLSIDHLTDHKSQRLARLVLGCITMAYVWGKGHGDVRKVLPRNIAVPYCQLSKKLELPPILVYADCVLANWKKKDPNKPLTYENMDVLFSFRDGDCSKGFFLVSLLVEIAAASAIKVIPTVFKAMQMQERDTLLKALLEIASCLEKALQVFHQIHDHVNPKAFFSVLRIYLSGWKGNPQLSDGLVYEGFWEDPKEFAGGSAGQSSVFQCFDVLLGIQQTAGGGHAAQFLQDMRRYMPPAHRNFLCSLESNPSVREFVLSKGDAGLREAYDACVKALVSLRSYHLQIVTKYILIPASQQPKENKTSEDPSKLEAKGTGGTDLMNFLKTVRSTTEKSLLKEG

Compound CC1(C)CN(c2cc(Cl)cc3cncn23)CCC12NC(=O)NC2=O (configuration not stated) has an IC50 [1] of 1.59 µM and an IC50 [2] of 0.148 µM.
